# Measurements published in US20240269094A1, “Treatment of canine dermatitis and skin irritation” (priority 2023, published 2024).
# Like-named read-outs stand apart in the source and are kept apart here.
# What was measured:
# [1] = system: tongue; test: Oral cavity screen: 15 mg of crystals on the dorsal surface of the tongue; type: in vivo, human; conditions: less than 2 mg on the tongue
# [2] = system: tongue; test: as above; type: in vivo, human
# Experimental: In this discovery, sensory activity in the oral cavity was the first screen. The goal was to identify candidates producing unusual sensations. Test agents, prepared as 15 mg of white crystals, were placed on the dorsal surface of the tongue. The chemical structures and identifying characteristics are in Table 1. […] Related cooling agents were not freezing cold, except for WS-23.
# [3] = system: philtrum skin; test: Philtrum (skin) bioassay of cooling; type: in vivo, human; conditions: for Duration-Skin: Wei, Table 6, see FIG. 6; for Comments: quality of sensation on philtrum skin: 8% wt/vol; for Duration of cooling: 8% wt/vol on philtrum
# Experimental: FIG. 5. The philtrum bioassay. Cooling agents, prepared as a or in solution are applied to the philtrum skin. Cooling intensity is rated on a scale of 0 to 3, with 0=no changes in sensation, 1=a slight feeling of coolness, cold or tingling, 2=a clearcut feeling of coolness of cold, and 3=a robust feeling of coolness of cold. The duration of cooling was recorded until two zeroes were measured 10 min apart.
# TRPM8 EC50 Receptor Assay. […] A receptor assay is a standard tool and can be done quickly. For example, in a 384-plate assay, you can easily test 10 compounds and get dose-response data. For a chemical agonist, an in vitro TRPM8 assay generates an EC50 (median effective concentration). But the quantitative correlation between the EC50 on TRPM8 and cooling sensation was vague. That is, the science was “roughly” predictive, but there was considerable uncertainty for each agonist. […] Philtrum (Skin) Assay. For cooling sensations on the skin, it is necessary to test the substance on the skin. Wei proposed the use of the skin on the philtrum as a test site for cooling activity of chemicals (FIG. 5). The test substance is dissolved in a carrier, such as solvent, gel, or ointment and applied to the philtrum, a surface area of […]. The subject records sensations on the philtrum and environs as:
# The subject is given a form to record observations and instructions to mark sensations on the philtrum and environs as: 0=no changes in sensation, 1=a slight feeling of coolness, cold, or tingling, 2=a clearcut feeling of coolness or cold, and 3=a robust feeling of coolness and cold.
# The intervals for measurements are usually at 5, to 15 min after application, until two successive zeros are obtained. The philtrum application site is the midline groove above the upper lip border and vermilion. The gel is placed on the philtrum with a cotton-tipped applicator up to the nasolabial folds and sometimes, but not deliberately, on the lower nostrils (subnasale). Cold receptors densely innervate the philtrum skin (FIG. 5), second only to the surfaces of the eyeball and anogenitalia. The lips also have a high density of “cold spots.” Hensel et al. mapped the cold spots on the human face (cited in Dhaka et al., 2008). In animals such as the rat the mystacial pad (nose pad with vibrissae) is abundantly labeled with TRPM8-fibers. “Cold Points” linked to single-unit neuronal discharges can be measured in experimental animals. Wei has direct experience in such experiments (Poree et al., 1989).
# Dip a cotton-tipped applicator (Puritan Cotton-tipped applicators, or Q-Tips) into a reservoir bottle containing the liquid or semi-liquid (gel) test substance. The composition adhering to the cotton (about 0.1 mL) is put on the skin. The philtrum site is shown in a cartoon. A subject can practice the method in front of a mirror with a high-intensity light source. Results for test on the philtrum are in Table 8 and FIG. 5. See data in FIG. 6. Cooling agents, prepared as an 8% wt./vol. gel, was tested topically on the philtrum skin assay. The duration of cooling was recorded (min on y-axis). The startling activity of FEMA 4557, cooling for ˜3 hr, was unexpected and surprising. FEMA 3784 is also known as Cool 10 or menthoxypropanediol. […]
# [4] = system: itch of urticaria and scalp itch; conditions: Kang et al., 2022; cited from earlier work
# [5] = system: itch induced by various pruritogens; test: Itch induced by pruritogens on skin of healthy volunteers (FIG. 1); type: in vivo, human; conditions: gel on skin, five test pruritogens, itch self-rated 0 to 10 for 10 min
# Experimental: FIG. 1. Topical Application of a cooling DIPA1-7 gel on skin of healthy volunteers inhibits itch induced by various pruritogens. n=30 subjects per trial. Results of Prof. Hyeone Kim, Sacred Heart Hospital, […] University, Seoul, Korea. Itch intensity was self-rated on a scale of 0 to 10 for 10 min (maximum score=100). […] Further details will be described in a scientific paper.
# [6] = molecular target: TRPM8 (Homo sapiens, UniProt Q7Z2W7); set-up: EC50; other: Johnson, 2.2/2.2; conditions: Ref. 5 (Johnson et al., 2018); cited from earlier work
# [7] = molecular target: T1, TRPM8 (Rattus norvegicus, UniProt Q8R455); set-up: EC50; other: Sherkheli, 196/1500; conditions: Ref. 4 (Sherkheli et al., 2010); cited from earlier work
# [8] = molecular target: T2, TRPM8 (Mus musculus, UniProt Q8R4D5); conditions: Ref. 2 (Behrendt et al., 2004); cited from earlier work
# [9] = system: oral cavity; conditions: 100 ppm in 5% sucrose; scale of 0 to 9 units; Johnson, 2018; cited from earlier work
# [10] = molecular target: T2, TRPM8; set-up: EC50; conditions: Ref. 3 (Bodding et al., 2007); cited from earlier work
# [11] = molecular target: T1, TRPM8; conditions: Ref. 1 column (McKemy et al., 2002); cited from earlier work
# [12] = system: canine atopic dermatitis; conditions: cited from earlier work
# [13] = system: canine dermatitis, scratching and licking; test: Topical treatment of canine skin irritation (case studies); type: in vivo, dog; conditions: Study 3, repeated bathing
# Experimental: The Applicant gave the dog's owner an airless pump dispenser containing 8% wt/vol of FEMA 4557 dispersed in 4 mg/ml of carbapol 980, formulated with 1% ethanol and 1% menthol, and instructed him to apply the gel to the skin of the dog's belly and groin.
# A twelve-year-old West Highland Terrier had periodic episodes of seasonal skin allergy. […] The owner of the dog, who had access to a pharmacy, applied nystatin ointment and a potent skin steroid cream containing […].
# Next, a 20% wt/vol FEMA 4557 solution, dissolved in propylene glycol, was applied to the interdigital folds of the paws with a cotton-tipped applicator (FIG. 9).
# [14] = molecular target: T3, TRPA1 (Homo sapiens, UniProt O75762); test: Bioassay in cells transfected with TRPA1 (FIG. 4); type: cell-based
# T3 construct: expressed in transfected cells
# Description: FIG. 4 Bioassay of FEMA 4557 (labeled as BUDA on the graph) in TRPM8 and TRPA1. Data from the laboratory of Prof. Seok-Yong Lee at Duke University.
# FIG. 4 Bioassay of FEMA 4557 (labeled as BUDA) in TRPM8 and TRPA1. Data of Prof. Seok-Yong Lee at Duke University.
# [15] = system: scratching excoriations; conditions: ointment; Biro et al., 2005; cited from earlier work
# [16] = Comparison of classes of cooling agents for applications on the canine skin (grades); set-up: species or system dog; key: A = excellent; B = average; C = poor; F = does not work; conditions: grade
# Description: Here are comments on grades assigned to specific classes of cooling agents (Table 3). […] The p-menthane carboxamides cover a wide range of compounds, but they are difficult for skin formulation to achieve a long duration of action. Menthol is short-acting and irritating, especially when it is near the ocular surface. The 1-dialkylphosphorylalkane known as DIPA1-7 (Cryosim-1, 1-dialkylphosphorylheptane) is an excellent skin agent, but costs are high for dermatological applications.
# T2 sequence (Q8R4D5 whole entry): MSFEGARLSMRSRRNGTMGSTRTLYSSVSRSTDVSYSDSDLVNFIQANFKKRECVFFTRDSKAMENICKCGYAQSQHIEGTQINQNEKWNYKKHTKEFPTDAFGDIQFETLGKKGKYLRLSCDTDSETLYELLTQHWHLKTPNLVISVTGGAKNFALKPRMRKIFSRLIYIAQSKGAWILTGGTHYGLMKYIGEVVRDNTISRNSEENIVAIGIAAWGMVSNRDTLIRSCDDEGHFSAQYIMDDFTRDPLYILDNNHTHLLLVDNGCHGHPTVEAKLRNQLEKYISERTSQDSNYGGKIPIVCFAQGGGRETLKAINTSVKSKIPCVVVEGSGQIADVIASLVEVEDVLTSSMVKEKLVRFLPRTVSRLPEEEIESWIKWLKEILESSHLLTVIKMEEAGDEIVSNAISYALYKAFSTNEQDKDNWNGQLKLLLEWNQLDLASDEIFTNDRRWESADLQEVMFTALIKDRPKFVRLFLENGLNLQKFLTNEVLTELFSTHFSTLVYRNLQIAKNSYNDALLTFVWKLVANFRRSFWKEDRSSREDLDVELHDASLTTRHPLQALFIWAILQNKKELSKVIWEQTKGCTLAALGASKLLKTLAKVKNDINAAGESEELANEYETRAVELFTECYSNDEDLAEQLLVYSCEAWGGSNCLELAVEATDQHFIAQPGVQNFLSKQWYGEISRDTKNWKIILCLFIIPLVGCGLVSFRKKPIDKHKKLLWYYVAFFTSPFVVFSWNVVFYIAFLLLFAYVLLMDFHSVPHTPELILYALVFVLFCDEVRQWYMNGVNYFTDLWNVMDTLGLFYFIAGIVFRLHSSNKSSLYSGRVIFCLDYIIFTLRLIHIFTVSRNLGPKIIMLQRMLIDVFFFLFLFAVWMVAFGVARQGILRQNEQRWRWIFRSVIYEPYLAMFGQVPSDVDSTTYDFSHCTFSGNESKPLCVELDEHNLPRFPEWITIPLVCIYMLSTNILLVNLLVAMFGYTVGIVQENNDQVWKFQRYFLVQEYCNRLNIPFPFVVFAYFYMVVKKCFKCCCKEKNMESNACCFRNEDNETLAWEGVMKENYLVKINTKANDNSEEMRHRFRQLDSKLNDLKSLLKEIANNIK
# T1 sequence (Q8R455 whole entry): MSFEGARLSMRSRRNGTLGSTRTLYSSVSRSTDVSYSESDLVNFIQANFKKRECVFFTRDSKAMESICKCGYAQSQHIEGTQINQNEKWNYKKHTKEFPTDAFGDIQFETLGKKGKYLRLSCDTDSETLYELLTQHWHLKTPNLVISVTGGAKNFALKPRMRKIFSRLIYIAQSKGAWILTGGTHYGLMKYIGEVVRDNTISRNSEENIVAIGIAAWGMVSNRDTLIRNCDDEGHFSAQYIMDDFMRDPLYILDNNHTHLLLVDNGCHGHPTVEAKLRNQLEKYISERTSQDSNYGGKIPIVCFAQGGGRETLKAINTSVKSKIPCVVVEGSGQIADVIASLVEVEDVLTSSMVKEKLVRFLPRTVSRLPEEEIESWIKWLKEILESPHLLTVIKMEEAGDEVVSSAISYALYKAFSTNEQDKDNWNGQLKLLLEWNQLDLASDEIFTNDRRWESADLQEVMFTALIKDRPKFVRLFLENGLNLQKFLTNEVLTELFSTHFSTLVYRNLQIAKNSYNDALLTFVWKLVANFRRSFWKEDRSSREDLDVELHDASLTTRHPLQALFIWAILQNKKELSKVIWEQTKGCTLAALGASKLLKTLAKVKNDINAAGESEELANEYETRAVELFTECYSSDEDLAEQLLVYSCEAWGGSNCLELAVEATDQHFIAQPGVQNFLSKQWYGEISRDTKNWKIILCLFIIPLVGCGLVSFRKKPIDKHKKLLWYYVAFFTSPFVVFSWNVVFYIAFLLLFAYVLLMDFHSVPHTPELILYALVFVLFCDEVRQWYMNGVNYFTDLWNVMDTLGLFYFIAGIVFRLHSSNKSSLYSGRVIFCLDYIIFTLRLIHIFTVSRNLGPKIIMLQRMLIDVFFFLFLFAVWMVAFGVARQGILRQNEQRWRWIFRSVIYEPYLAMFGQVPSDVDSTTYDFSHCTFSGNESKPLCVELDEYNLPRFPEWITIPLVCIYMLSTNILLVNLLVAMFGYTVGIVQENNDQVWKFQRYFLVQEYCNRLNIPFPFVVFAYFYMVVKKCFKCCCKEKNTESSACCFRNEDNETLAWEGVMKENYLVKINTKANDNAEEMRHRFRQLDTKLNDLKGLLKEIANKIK
# T3 sequence (O75762 whole entry, species assumed): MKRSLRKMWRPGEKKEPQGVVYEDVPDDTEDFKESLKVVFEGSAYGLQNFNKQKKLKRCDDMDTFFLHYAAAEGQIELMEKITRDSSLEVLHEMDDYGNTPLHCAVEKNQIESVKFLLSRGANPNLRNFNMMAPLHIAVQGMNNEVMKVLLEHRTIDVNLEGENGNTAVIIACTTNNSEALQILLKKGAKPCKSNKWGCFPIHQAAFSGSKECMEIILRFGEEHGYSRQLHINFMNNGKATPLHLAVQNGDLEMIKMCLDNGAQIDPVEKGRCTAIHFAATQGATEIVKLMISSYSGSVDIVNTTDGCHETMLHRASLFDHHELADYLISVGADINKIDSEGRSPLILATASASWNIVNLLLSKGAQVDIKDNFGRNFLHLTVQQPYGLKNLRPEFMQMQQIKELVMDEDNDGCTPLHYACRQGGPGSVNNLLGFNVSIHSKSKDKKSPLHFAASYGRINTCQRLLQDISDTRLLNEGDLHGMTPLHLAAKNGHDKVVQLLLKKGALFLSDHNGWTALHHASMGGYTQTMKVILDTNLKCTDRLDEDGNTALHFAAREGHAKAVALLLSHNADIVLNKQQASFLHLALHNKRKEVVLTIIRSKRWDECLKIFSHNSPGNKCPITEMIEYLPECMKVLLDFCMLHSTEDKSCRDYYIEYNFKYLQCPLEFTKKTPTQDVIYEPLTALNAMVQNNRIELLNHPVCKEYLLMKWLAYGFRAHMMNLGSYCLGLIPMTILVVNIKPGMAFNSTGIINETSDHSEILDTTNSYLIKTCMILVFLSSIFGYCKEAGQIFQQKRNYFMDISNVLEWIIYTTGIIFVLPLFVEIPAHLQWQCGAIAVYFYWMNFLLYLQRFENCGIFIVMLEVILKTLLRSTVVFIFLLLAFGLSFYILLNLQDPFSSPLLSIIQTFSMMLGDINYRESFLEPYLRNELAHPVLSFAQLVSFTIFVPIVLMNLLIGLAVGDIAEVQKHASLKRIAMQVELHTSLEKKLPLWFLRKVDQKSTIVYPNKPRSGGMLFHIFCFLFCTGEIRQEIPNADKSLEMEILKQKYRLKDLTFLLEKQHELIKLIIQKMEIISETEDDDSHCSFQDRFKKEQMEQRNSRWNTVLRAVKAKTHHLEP
smiles,measurement,setting,value
"CCCCCCCP(=O)(C(C)C)C(C)C [DIPA-1-7, 1-diisopropylphosphorylheptane]",sensation on the tongue,[1],"frigid, stinging, icy, and painful cold"
same,Effects of 15 mg on tongue: sensation,[2],"stinging, painful cold"
same,adverse skin sensations,"[3]; on skin, contrast to FEMA 4557",frigid cold and irritation
same,itch in human subjects,[4],inhibited the itch of urticaria and scalp itch
same,inhibition of pruritogen-induced itch,[5],significantly inhibited itching
CCNC(=O)[C@@H]1C[C@H](C)CC[C@H]1C(C)C [WS-3],EC50,[6],5.9 µM
same,EC50,[7],210 µM
same,EC50,[8],3.7 µM
same,Effects of 15 mg on tongue: duration,[2],~8 min
same,Effects of 15 mg on tongue: sensation,[2],pleasant cooling in oral cavity
same,Cooling Intensity Oral Cavity Scaled,[9],5.2
same,Duration-Skin,[3],0.3 h
COc1ccc(NC(=O)[C@@H]2C[C@H](C)CC[C@H]2C(C)C)cc1 [WS-12],EC50,[6],22.1 µM
same,EC50,[7],12 µM
same,EC50,[10],0.2 µM
same,Effects of 15 mg on tongue: duration,[2],~20 min
same,Effects of 15 mg on tongue: sensation,[2],pleasant cooling in oral cavity
same,Cooling Intensity Oral Cavity Scaled,[9],3
same,Comments: quality of sensation on philtrum skin,[3],pleasant cool sensations on skin
same,Duration of cooling,[3],38 ± 4 min
same,Duration-Skin,[3],0.4 h
CCOC(=O)[C@@H](C)NC(=O)[C@@H]1C[C@H](C)CC[C@H]1C(C)C [CPS-369],EC50,[7],65 µM
same,EC50,[10],3.6 µM
CC(C)[C@@H]1CC[C@@H](C)C[C@H]1O [l-menthol],EC50,[7],196 µM
same,EC50,[10],10.4 µM
same,EC50,[11],67 µM
same,EC50,[8],4.1 µM
same,Cooling Intensity Oral Cavity Scaled,[9],5
same,Duration-Skin,[3],0.3 h
CNS(=O)(=O)C[C@H]1CC[C@H](N(C)c2ncnc3[nH]ccc23)CC1 [oclacitinib],onset of anti-scratching effects,[12]; oral tablet once or twice a day,as early as four hours after dosing
same,Onset,[12]; oral tablet,"15 min, hours"
CC(=O)N1CCN(c2ccc(OCC3COC(Cn4ccnc4)(c4ccc(Cl)cc4Cl)O3)cc2)CC1 (stereo not shown) [ketoconazole],effect of antifungal shampoo on skin irritation,[13],did not make any difference
Clc1ccc(COC(Cn2ccnc2)c2ccc(Cl)cc2Cl)c(Cl)c1 (stereo not shown) [miconazole],effect of antifungal shampoo on skin irritation,[13],did not make any difference
CCOC(=O)CNC(=O)[C@@H]1C[C@H](C)CC[C@H]1C(C)C [WS-5],EC50,[6],0.5 µM
same,EC50,[7],26 µM
same,Effects of 15 mg on tongue: duration,[2],~12 min
same,Effects of 15 mg on tongue: sensation,[2],pleasant cooling in oral cavity
same,Cooling Intensity Oral Cavity Scaled,[9],6
same,Comments: quality of sensation on philtrum skin,[3],pleasant cool sensations of skin
same,Duration of cooling,[3],51 ± 4 min
same,Duration-Skin,[3],0.5 h
"CC(C)OC(=O)CNC(=O)[C@@H]1C[C@H](C)CC[C@H]1C(C)C [Ax-8, p-Menthane-Gly-OiPr]",Effects of 15 mg on tongue: duration,[2],~27 min
same,Effects of 15 mg on tongue: sensation,[2],pleasant cooling in oral cavity
CCCCCCCP(=O)(C(C)CC)C(C)CC (stereo not shown) [WS-148],EC50,[10],4.1 µM
"C=CCN=C=S [AITC, allyl isothiocyanate]",activity on TRPA1,[14],active
"CC(C)[C@@H]1CC[C@@H](C)C[C@H]1OCC(O)CO (stereo partly shown) [Cool 10, menthoxypropanediol]",EC50,[8],6 µM
O=C1NC(c2cccc([N+](=O)[O-])c2)=CCN1c1ccccc1O [icilin],scratching excoriations,[15],prevented scratching excoriations
same,EC50,[7],7 µM
same,EC50,[10],1.4 µM
same,EC50,[11],0.36 µM
same,Absence of Irritancy,[16],A
same,Potency,[16],A
same,Rapid Onset,[16],B
same,Safety in Use,[16],A
same,Sufficient Duration,[16],A
